Reference: US10501748B2, “Methods and compositions for integration of an exogenous sequence within the genome of plants” (Dow AgroSciences LLC, priority 2013, dated 2019)

What was measured:
[1] = system: scutella of cv. Bobwhite MPB26RH and cv. Clearfield Janz (N653/N653); experiment: basal tolerance/resistance to IMAZAMOX at the callus induction stage; type: cell-based, Triticum aestivum
Protocol: The basal tolerance of the donor wheat line cv. Bobwhite MPB26RH and basal resistance of cv. Clearfield Janz (N653/N653) genotype to IMAZAMOX® at the callus induction stage was determined as follows: Scutella of immature zygotic embryos from each wheat line were isolated as described previously and placed in 10 cm PETRI™ dishes containing CIM medium supplemented with 0, 50, 100, 200, 300, 400 and 500 nM IMAZAMOX® respectively. Twenty scutella were placed in each PETRI™ dish. A total of 60 scutella from each of the donor wheat line cv. Bobwhite MPB26RH and cv. Clearfield Janz genotype were tested for basal tolerance and basal resistance response, respectively, at each IMAZAMOX® concentration. After incubation at 24° C. in the dark for 4 weeks, the amount of somatic embryogenic callus formation (SEC) at each IMAZAMOX® concentration was recorded. […] Bobwhite MPB26RH was reduced by about 70% at 100 nM IMAZAMOX®, compared to untreated samples. Callus formation for the cv. Clearfield Janz genotype was unaffected, relative to the untreated control, at any IMAZAMOX® concentrations tested.

[2] = system: somatic embryogenic callus of cv. Bobwhite MPB26RH; experiment: basal tolerance to IMAZAMOX at the plant regeneration stage; type: cell-based, Triticum aestivum; settings: 200 nM, 2 weeks, compared to untreated samples
Protocol: The basal tolerance of the donor wheat line cv. Bobwhite MPB26RH to IMAZAMOX® at the plant regeneration stage was determined as follows: Scutella of immature zygotic embryos from the donor wheat line were isolated as described previously and placed in 10 cm PETRI™ dishes containing CIM medium. Somatic embryogenic callus was allowed to form by incubating at 24° C. in the dark for 4 weeks. The SEC was transferred to 10 cm PETRI™ dishes containing DRM medium supplemented with 0, 100, 200, 300, 400, 500 and 1000 nM IMAZAMOX® respectively. Twenty CIM were placed in each PETRI™ dish. A total of 60 CIM were tested for basal tolerance response at each IMAZAMOX® concentration. After incubation for 2 weeks at 24° C. under a 16/8 (light/dark) hour photoperiod in a growth room, the regeneration response was recorded.

[3] = system: cv. Clearfield Janz (S653/S653) and (N653/N653) plants; experiment: basal tolerance/resistance to IMAZAMOX at the plant rooting stage, modified approach; type: in vivo, Triticum aestivum; settings: 2 weeks
Protocol: The basal tolerance of the cv. Clearfield Janz (S653/S653) genotype and basal resistance of the cv. Clearfield Janz (N653/N653) genotype to IMAZAMOX® at the plant rooting stage was determined using a modified approach, as cv. […] Seed for each cv. Clearfield Janz genotype was germinated using the aseptic approach described above for producing wheat mesophyll protoplasts. The germinated seedlings were multiplied in vitro by sub-culturing on multiplication medium. Following multiplication, plants for each genotype were transferred to 10 cm PETRI™ dishes containing plant rooting medium (½ MS, 0.5 mg/L NAA, 0.8% agar) supplemented with 0, 50, 100, 200 and 250 nM IMAZAMOX®, respectively. Three plants were placed in each PETRI™ dish. A total of 6 plants per genotype were tested for basal response at each IMAZAMOX® concentration. After incubation for 2 weeks at 24° C. under a 16/8 (light/dark) hour photoperiod in a growth room, the root formation response was recorded.
Clearfield Janz (N653/N653) genotype was restricted, compared to untreated samples, at 250 nM IMAZAMOX®. […] Clearfield Janz (S653/S653) genotype at all concentrations of IMAZAMOX® tested, compared to untreated samples.

[4] = system: cv. Clearfield Janz (S653/S653) and (N653/N653) plants; experiment: basal tolerance/resistance to IMAZAMOX at the plant regeneration stage, modified approach (plant growth); type: in vivo, Triticum aestivum; settings: 3 weeks
Protocol: The basal tolerance of the cv. Clearfield Janz (S653/S653) genotype and basal resistance of the cv. Clearfield Janz (N653/N653) genotype to IMAZAMOX® at the plant regeneration stage was determined using a modified approach, as cv. […] Seed for each cv. Clearfield Janz genotype was germinated using the aseptic approach described above for producing wheat mesophyll protoplasts. The germinated seedlings were multiplied in vitro by sub-culturing on multiplication medium. Following multiplication, plants for each genotype were transferred to 10 cm PETRI™ dishes containing plant growth medium (MS+10 μM BA+0.8% agar) supplemented with 0, 100, 300, 600, 900, 1200, 1500 and 3000 nM IMAZAMOX®, respectively. Ten plants were placed in each PETRI™ dish. A total of 30 plants per genotype were tested for basal response at each IMAZAMOX® concentration. After incubation for 3 weeks at 24° C. under a 16/8 (light/dark) hour photoperiod in a growth room, the growth response was recorded. […] This response was similar to that observed for the cv. Bobwhite MPB26RH (S653/S653) genotype. In contrast, plant growth for the cv.

`COCc1cnc(C2=NC(C)(C(C)C)C(=O)N2)c(C(=O)O)c1` (stereo not shown) [IMAZAMOX] was tested, and the “reduction of SEC formation” value ([1]; cv. Bobwhite MPB26RH, 100 nM, 4 weeks, compared to untreated samples) was “about 70%”, the “callus formation relative to untreated control” value ([1]; cv. Clearfield Janz (N653/N653), any concentration tested (50-500 nM)) was “unaffected” and the “reduction of plant regeneration” value [2] was “about 80%”. For the same molecule, the “root formation compared to untreated samples” value ([3]; cv. Clearfield Janz (N653/N653), 250 nM) was “restricted”, the “root formation compared to untreated samples” value ([3]; cv. Clearfield Janz (S653/S653), all concentrations tested (50-250 nM)) was “severely restricted” and the “concentration above which plant growth was strongly suppressed” value ([4]; cv. Clearfield Janz (N653/N653)) was “exceeded 2,000 nM”. The “plant growth compared to untreated samples” value ([4]; cv. Clearfield Janz (S653/S653), medium containing at least 200 nM) was “severely reduced”.
